According to patent US9902714B2, “Quinoxaline derivatives useful as FGFR kinase modulators” (ASTEX THERAPEUTICS LTD, priority 2014, dated 2018):

Experiments:
[1] = biological target: FGFR4 (Homo sapiens (Human), UniProt P22455); experiment: Enzyme binding assay (KINOMEscan) FGFR4
[2] = biological target: VEGFR2 (Homo sapiens (Human), UniProt P35968); experiment: Enzyme binding assay (KINOMEscan) VEGFR2
VEGFR2, sequence (P35968 20-1356): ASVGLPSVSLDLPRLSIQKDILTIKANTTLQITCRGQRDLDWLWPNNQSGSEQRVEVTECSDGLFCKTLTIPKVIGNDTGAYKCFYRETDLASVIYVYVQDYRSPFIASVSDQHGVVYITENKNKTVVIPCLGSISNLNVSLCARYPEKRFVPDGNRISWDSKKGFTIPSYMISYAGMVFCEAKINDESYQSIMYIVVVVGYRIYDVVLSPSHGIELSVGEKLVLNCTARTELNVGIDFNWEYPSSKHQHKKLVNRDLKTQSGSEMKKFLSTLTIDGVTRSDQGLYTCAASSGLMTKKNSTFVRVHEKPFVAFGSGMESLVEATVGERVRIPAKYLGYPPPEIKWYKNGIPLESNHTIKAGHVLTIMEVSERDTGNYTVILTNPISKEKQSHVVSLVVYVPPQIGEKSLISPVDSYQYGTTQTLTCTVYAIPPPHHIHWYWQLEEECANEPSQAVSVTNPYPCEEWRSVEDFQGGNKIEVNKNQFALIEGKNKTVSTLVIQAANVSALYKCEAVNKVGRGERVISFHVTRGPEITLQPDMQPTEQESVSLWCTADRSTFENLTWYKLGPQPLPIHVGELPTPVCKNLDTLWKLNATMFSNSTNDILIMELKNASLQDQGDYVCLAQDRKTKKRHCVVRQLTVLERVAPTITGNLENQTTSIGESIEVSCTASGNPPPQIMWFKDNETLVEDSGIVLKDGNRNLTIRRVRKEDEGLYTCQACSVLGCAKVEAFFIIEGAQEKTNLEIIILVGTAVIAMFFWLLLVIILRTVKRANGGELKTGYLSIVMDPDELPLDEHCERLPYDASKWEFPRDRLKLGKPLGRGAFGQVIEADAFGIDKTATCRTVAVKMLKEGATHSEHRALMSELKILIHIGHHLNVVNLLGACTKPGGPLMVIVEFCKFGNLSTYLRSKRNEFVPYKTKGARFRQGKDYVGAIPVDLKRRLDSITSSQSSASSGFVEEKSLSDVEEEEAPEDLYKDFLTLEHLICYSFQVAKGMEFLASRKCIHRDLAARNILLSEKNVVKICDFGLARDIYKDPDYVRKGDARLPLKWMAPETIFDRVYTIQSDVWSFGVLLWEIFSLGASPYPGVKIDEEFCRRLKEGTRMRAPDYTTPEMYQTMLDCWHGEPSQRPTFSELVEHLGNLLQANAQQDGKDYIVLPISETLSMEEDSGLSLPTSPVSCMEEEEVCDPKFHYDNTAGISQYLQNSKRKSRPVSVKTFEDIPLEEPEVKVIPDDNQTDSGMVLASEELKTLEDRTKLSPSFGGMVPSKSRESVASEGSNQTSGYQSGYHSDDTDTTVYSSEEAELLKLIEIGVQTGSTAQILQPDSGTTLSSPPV

FGFR4, sequence (P22455 22-802): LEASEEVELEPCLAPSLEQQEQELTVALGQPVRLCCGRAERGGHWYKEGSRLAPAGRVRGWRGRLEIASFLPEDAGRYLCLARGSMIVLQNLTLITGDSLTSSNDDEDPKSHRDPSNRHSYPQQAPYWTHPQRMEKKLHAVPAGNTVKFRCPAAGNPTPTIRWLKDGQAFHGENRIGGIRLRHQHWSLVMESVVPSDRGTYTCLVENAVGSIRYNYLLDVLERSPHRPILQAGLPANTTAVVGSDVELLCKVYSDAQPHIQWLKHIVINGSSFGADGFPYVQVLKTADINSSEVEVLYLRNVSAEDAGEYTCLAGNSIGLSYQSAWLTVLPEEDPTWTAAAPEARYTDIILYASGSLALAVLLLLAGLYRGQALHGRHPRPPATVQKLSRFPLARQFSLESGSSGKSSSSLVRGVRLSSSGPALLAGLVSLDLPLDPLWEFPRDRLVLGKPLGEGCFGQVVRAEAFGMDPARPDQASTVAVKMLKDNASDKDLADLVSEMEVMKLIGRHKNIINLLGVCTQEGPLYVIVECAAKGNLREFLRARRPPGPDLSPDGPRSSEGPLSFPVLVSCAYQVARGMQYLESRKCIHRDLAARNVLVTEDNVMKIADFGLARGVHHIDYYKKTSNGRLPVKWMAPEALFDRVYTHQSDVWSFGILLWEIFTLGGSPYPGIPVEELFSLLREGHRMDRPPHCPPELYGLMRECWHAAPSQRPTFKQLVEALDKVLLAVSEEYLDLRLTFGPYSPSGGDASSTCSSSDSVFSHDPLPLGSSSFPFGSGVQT

SMILES | Kd [1] | Kd [2]
COc1cc(OC)c2c(c1)N(c1ccc3ncc(-c4cn[nH]c4)nc3c1)CCN(C(C)C)C2 [Compound 2] | 68 nM | 741 nM
COc1cc(O)c2c(c1)N(c1ccc3ncc(-c4cnn(C)c4)nc3c1)CCN(C(C)C)C2 [Compound 3] | 1900 nM | > 3000 nM
COc1cc(O)cc2c1CN(C(C)C)CCN2c1ccc2ncc(-c3cnn(C)c3)nc2c1 [Compound 4] | > 3000 nM | > 3000 nM
CCn1cc(-c2cnc3ccc(N4CCN(C)Cc5c(OC)cc(OC)cc54)cc3n2)cn1 [Compound 6] | > 3000 nM | > 3000 nM
CCn1cc(-c2cnc3ccc(N4CCN(C(C)C)Cc5c(OC)cc(OC)cc54)cc3n2)cn1 [Compound 7] | 230 nM | 1700 nM
COc1cc(OC)c2c(c1)N(c1ccc3ncc(-c4cnn(C)c4)nc3c1)CCCN(C(C)C)C2 [Compound 9] | 355 nM | 922 nM
